The structures appear in SMILES notation.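 Where inhibition never reached the appropriate level, the endpoint shown equals the highest concentration tested. Otherwise, values were interpolated linearly from a five-concentration, 48-hour dose response in 96-well plates. GI50 is the concentration that inhibits growth by half. TGI marks complete inhibition of growth.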

We go through 10 compounds from PubChem BioAssay (NCI).

Some test systems named below: COLO 205 colon; CCRF-CEM leukemia; K-562 leukemia; SK-MEL-28 melanoma; IGROV1 ovarian; NCI-H522 lung; MOLT-4 leukemia; TK-10 renal; HT29 colon; EKVX NSCLC.
Holding throughout (assay): NCI anticancer screen, dose series, 48 h

In the case of `CCOC(=O)[C@@H](N)CCC(=O)N[C@@H](CSCc1ccccc1)C(=O)N[C@@H](C(=O)OCC)c1ccccc1`, the GI50 in the test on COLO 205 colon was 17.4 µM; in the test with CCRF-CEM leukemia, 21.8 µM; with K-562 leukemia it was 22.2 µM; with SK-MEL-28 melanoma it was 16.7 µM; in the test with IGROV1 ovarian it was 19.3 µM; with NCI-H522 lung, 16.2 µM. In addition, the GI50 in the test with MOLT-4 leukemia is 24.8 µM; in the test with TK-10 renal, 16.6 µM; in the test on HT29 colon, 16.6 µM; with EKVX NSCLC, 25.2 µM. Also, the TGI in the test with COLO 205 colon was 34.2 µM; with CCRF-CEM leukemia, over 67.7 µM; in the test with K-562 leukemia, 75 µM; in the test on SK-MEL-28 melanoma, 31.7 µM; in the test on IGROV1 ovarian, 36.4 µM; in the test on NCI-H522 lung, 32.4 µM. Further, the TGI with MOLT-4 leukemia is over 71.4 µM; in the test with TK-10 renal, 32.7 µM; with HT29 colon, 33.6 µM; with EKVX NSCLC it was over 73.3 µM.
`CCOc1ccccc1N=Nc1ccc2oc(=O)c(C(=O)Nc3cccc(C)c3)cc2c1`: the TGI is 71.8 µM with COLO 205 colon; 83.8 µM with CCRF-CEM leukemia; 88 µM in the test with K-562 leukemia; 72.3 µM in the test with SK-MEL-28 melanoma; over 100 µM in the test on IGROV1 ovarian; 57.1 µM in the test on NCI-H522 lung. Further, the TGI in the test on MOLT-4 leukemia is 80.2 µM; in the test with TK-10 renal it was over 100 µM; in the test with HT29 colon, over 100 µM; in the test on EKVX NSCLC, 95.2 µM.
Turning to `CS/C(N)=N\NC(=O)CCC(=O)Nc1ccccc1C(F)(F)F`, the TGI with COLO 205 colon, in the test with CCRF-CEM leukemia, in the test on K-562 leukemia, with SK-MEL-28 melanoma, with IGROV1 ovarian and in the test with NCI-H522 lung was over 100 µM each time. Further, the TGI with MOLT-4 leukemia, in the test with TK-10 renal, in the test on HT29 colon and in the test with EKVX NSCLC was over 100 µM each time.
As to `CC(=O)CSCc1ccccn1`, the TGI in the test with COLO 205 colon is over 100 µM; with CCRF-CEM leukemia, 90.7 µM; in the test on K-562 leukemia, 82.3 µM; with SK-MEL-28 melanoma, over 100 µM; in the test on IGROV1 ovarian it was over 100 µM; in the test with NCI-H522 lung, 45.3 µM. For the same compound, the TGI in the test with MOLT-4 leukemia is 61.4 µM; in the test with TK-10 renal, over 100 µM; in the test with HT29 colon, over 100 µM; in the test on EKVX NSCLC, over 100 µM.
Consider `Cc1ccc(C(=O)CN(/C=C/C(=O)C(F)(F)F)c2ccc(S(N)(=O)=O)cc2)cc1`, for which the GI50 in the test with COLO 205 colon was over 100 µM; in the test on CCRF-CEM leukemia, 30.3 µM; in the test on K-562 leukemia, 39.3 µM; with SK-MEL-28 melanoma, over 100 µM; in the test on IGROV1 ovarian it was over 100 µM; with NCI-H522 lung, 53.8 µM. For the same compound, the GI50 in the test on MOLT-4 leukemia was 44 µM; in the test on TK-10 renal, 44.5 µM; with HT29 colon, over 100 µM; in the test with EKVX NSCLC, 55.2 µM. The TGI with COLO 205 colon, with CCRF-CEM leukemia, in the test with K-562 leukemia, in the test with SK-MEL-28 melanoma, with IGROV1 ovarian and in the test on NCI-H522 lung was over 100 µM throughout. Further, the TGI in the test on MOLT-4 leukemia, with TK-10 renal, in the test with HT29 colon and with EKVX NSCLC was over 100 µM each time.
In the case of `CC(C)(C)c1cc(Br)c(O)c(CN(Cc2cc(C(C)(C)C)cc(Br)c2O)C2CCCCC2)c1`, the TGI worked out at 23.3 µM in the test with COLO 205 colon; 26.6 µM in the test with CCRF-CEM leukemia; 28.3 µM in the test with K-562 leukemia; 28.9 µM in the test with SK-MEL-28 melanoma; 28.7 µM in the test on IGROV1 ovarian; 25.1 µM with NCI-H522 lung. Besides, the TGI in the test with MOLT-4 leukemia turned out to be 26 µM; in the test on TK-10 renal, 29.2 µM; in the test on HT29 colon, 19.3 µM; in the test with EKVX NSCLC it was 27.9 µM.
For the compound `CN1CCN(CCCOc2ccc3nc(Nc4ccc(Cl)c(C(F)(F)F)c4)ccc3c2)CC1`, the GI50 is 9.79 µM in the test on COLO 205 colon; 6 µM in the test with CCRF-CEM leukemia; 2.4 µM in the test with K-562 leukemia; 13.8 µM with SK-MEL-28 melanoma; 13.2 µM in the test on IGROV1 ovarian; 14.1 µM in the test on NCI-H522 lung. For the same compound, the GI50 in the test on MOLT-4 leukemia is 8.2 µM; in the test with TK-10 renal, 18.3 µM; with HT29 colon, 2.67 µM; in the test with EKVX NSCLC, 15 µM. The TGI in the test on COLO 205 colon was 24.4 µM; with CCRF-CEM leukemia it was 22.1 µM; in the test on K-562 leukemia, 5.78 µM; with SK-MEL-28 melanoma it was 29.2 µM; with IGROV1 ovarian, 30.1 µM; with NCI-H522 lung it was 28.1 µM. The TGI is 24.3 µM in the test on MOLT-4 leukemia, 32.8 µM in the test with TK-10 renal, 8.38 µM in the test on HT29 colon and 29.1 µM in the test on EKVX NSCLC.
Take `CC1CC[C@]2(C(=O)O)CCC3(C)C(=CC(=O)C4[C@@]5(C)CCC(=O)C(C)(C)C5CC[C@]43C)[C@@H]2[C@H]1C` (stereo not given in full): the TGI was 33.7 µM in the test with COLO 205 colon; 58.9 µM in the test on CCRF-CEM leukemia; over 100 µM in the test with K-562 leukemia; 42.9 µM in the test on SK-MEL-28 melanoma; over 100 µM with IGROV1 ovarian; 71.3 µM with NCI-H522 lung. Further, the TGI in the test on MOLT-4 leukemia was 32.2 µM; with TK-10 renal, 90.2 µM; in the test on HT29 colon it was over 100 µM; with EKVX NSCLC it was over 100 µM.
On to `COC1=C(C)C(=O)c2c(c(COC(N)=O)c3n2CC2C3N2C)C1=O` (stereo not given), for which the TGI is 0.119 µM with COLO 205 colon; 0.105 µM in the test with CCRF-CEM leukemia; 0.341 µM in the test on K-562 leukemia; 0.173 µM in the test with SK-MEL-28 melanoma; 0.351 µM with IGROV1 ovarian; 0.0304 µM in the test with NCI-H522 lung. The TGI in the test on MOLT-4 leukemia worked out at 0.104 µM; in the test with TK-10 renal, 0.0542 µM; in the test on HT29 colon it was 0.314 µM; in the test with EKVX NSCLC, 0.376 µM.
With `NP(=O)(Oc1c2occc2cc2ccc(=O)oc12)N(CCCl)CCCl` (stereo not given), the TGI with COLO 205 colon, in the test on CCRF-CEM leukemia, in the test on K-562 leukemia, in the test on SK-MEL-28 melanoma, in the test on IGROV1 ovarian and in the test on NCI-H522 lung was over 100 µM throughout. The TGI in the test on MOLT-4 leukemia, in the test with TK-10 renal, in the test on HT29 colon and in the test with EKVX NSCLC was over 100 µM each time.
